According to patent publication US8846691B2, “Heterocyclic carboxylic acid derivatives having a 2,5,7-substituted oxazolopyrimidine ring” (Sanofi, priority 2010, dated 2014):

Molecular target: T1, human Edg 1 receptor (Homo sapiens, UniProt P21453)
T1 construct: expressed in transfected cells; membrane preparation
Experiment: GTP-γ-S assay using human Edg 1 receptors (scintillation proximity assay, CHO Flp-In membrane preparation)
Assay type: biochemical
Details: test compound at 10 μM; high control 10 μM S1P regarded as 100% activation; background-corrected; triplicate; read-out: % activation (Edg 1 receptor activation in percent of the activation by 10 μM S1P)
From the text: Determination of the Pharmacological Activity A) GTP-γ-S Assay Using Human Edg 1 Receptors
In order to determine the Edg 1 receptor activation by the compounds of the invention, a GTP-γ-S ((GTP-γ-S=guanosine 5′-[thio]triphosphate) assay for G-protein coupled receptor binding based on the scintillation proximity assay principle was used, employing a cell membrane preparation from a CHO Flp-In cell line which constitutively overexpresses the human Edg 1 receptor.
The Flp-In™ expression system (Invitrogen, cat. no. K6010-01) allows the generation of stable mammalian cell lines into which the gene of interest has been integrated through homologous recombination at a specific genomic location called Flp Recombination Target (FRT) site by means of a Flp recombinase encoded by the pOG44 expression plasmid. The integration of the pcDNA5/FRT expression construct into the Flp-In host cell line genome results in the transcription of the gene of interest. The stably transfected cells become hygromycin-resistant.
One day prior to transfection, 200 000 Flp-In-CHO cells were seeded in Ham F-12 medium (Invitrogen, cat. no. 31765) supplemented with 10% fetal calf serum (FCS; Perbio Science, cat. no. SH30068.03) in a 6-well plate and incubated at 37° C./5% CO2 overnight. Using the FuGENE® 6 transfection reagent (Roche, cat. no. 11988387001), cells were cotransfected with the Flp recombinase expression plasmid pOG44 and a modified plasmid additionally containing the edg 1 gene (accession no. NM_001400) termed as pcDNA5-FRT-TO_nFLAG_DEST-EDG 1 with a 9:1 ratio. To obtain the modified pcDNA5-FRT-TO_nFLAG_DEST plasmid, the Invitrogen plasmid pcDNA5/FRT/TO (Invitrogen, cat. no. V6520-20) was adapted to the Gateway® (Invitrogen) cloning system by inserting a Gateway cassette containing attR recombination sites flanking a ccdB gene and a chloramphenicol-resistance gene (Gateway conversion system, Invitrogen, cat. no. 11828-029). In addition a FLAG tag epitope was added before the 5′ att recombination site to allow recombinant expression of N-terminally FLAG-tagged proteins.
For the transfection of one well, 1.08 μg of pOG44 and 0.12 μg of pcDNA5-FRT-TO_nFLAG_DEST-EDG 1 were mixed with 100 μl of serum-free Ham F-12 medium containing 6 μl of FuGENE® 6 transfection reagent. After 20 min of incubation, the transfection reagent/DNA complex was distributed dropwise on the cells. The cells were incubated for 24 h at 37° C. Then the cells from 3 wells were transferred to a T75 flask (Greiner Cellstar®, cat. no. 658175) containing Ham F-12 medium supplemented with 10% of FCS but without antibiotic and were incubated for another 24 h. 48 h after transfection, the medium was replaced by selection medium (Ham F-12 supplemented with 10% of FCS and 300 μg/ml of hygromycin B (Invitrogen, cat. no. 10687-010)). The medium was exchanged every 2 to 3 days until a resistant population of cells had grown. […] After 2 weeks of selection, the cells were transferred into T175 flasks (Greiner Cellstar®, cat. no. 660175) and cultivated for batch production. Cells were harvested from the culture flasks by short treatment (2 to 5 min) with Accutase (PAA, cat. no. L^11-007), resuspended in selection medium (see above) and centrifuged at 200×g for 5 min. Cells were resuspended in a mixture of 90% of FCS and 10% of dimethyl sulfoxide and stored frozen in liquid nitrogen.
A membrane preparation was obtained by standard methods from the afore-described CHO Flp-In cell line constitutively overexpressing the human Edg 1 receptor. Briefly, the cryopreserved cells were taken in culture and grown until confluency in T175 cell culture flasks (Becton Dickinson, cat. no. 35 5001). […]

T1 sequence (P21453 whole entry): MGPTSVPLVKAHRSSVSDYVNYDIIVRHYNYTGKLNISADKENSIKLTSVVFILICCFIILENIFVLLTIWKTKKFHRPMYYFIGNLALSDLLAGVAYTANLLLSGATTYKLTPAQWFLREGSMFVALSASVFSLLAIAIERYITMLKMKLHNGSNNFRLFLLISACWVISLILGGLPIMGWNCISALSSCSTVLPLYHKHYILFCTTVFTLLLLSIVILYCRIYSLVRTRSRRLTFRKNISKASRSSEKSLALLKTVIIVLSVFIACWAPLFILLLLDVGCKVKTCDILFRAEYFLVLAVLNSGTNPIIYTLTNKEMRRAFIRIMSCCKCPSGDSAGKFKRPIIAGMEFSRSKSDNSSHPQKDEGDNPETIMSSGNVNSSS

Compound	activation at 10 µM [%]
CCCOc1nc(Oc2ccc(C)c(F)c2)nc2oc(-c3cc(C)c(OCC(=O)N4CCC[C@H]4C(=O)O)c(C)c3)nc12 [Example 5, (S)-1-(2-{4-[5-(3-Fluoro-4-methylphenoxy)-7-propoxyoxazolo[5,4-d]pyrimidin-2-yl]-2,6-dimethylphenoxy}acetyl)pyrrolidine-2-carboxylic acid]	79
CCCOc1nc(Oc2cccnc2)nc2oc(-c3cc(C)c(OCC(=O)N4CCC[C@H]4C(=O)O)c(C)c3)nc12 [Example 6, (S)-1-(2-{2,6-Dimethyl-4-[7-propoxy-5-(pyridin-3-yloxy)oxazolo[5,4-d]pyrimidin-2-yl]phenoxy}acetyl)pyrrolidine-2-carboxylic acid]	112
CCCOc1nc(Oc2ccccc2)nc2oc(-c3cc(C)c(OCC(=O)N4CCC[C@H]4C(=O)O)c(C)c3)nc12 [Example 8, (S)-1-{2-[2,6-Dimethyl-4-(5-phenoxy-7-propoxyoxazolo[5,4-d]pyrimidin-2-yl)phenoxy]acetyl}pyrrolidine-2-carboxylic acid]	108
CCCOc1nc(OC2CCCC[C@H]2F)nc2oc(-c3cc(C)c(OCC(=O)N4CCC[C@H]4C(=O)O)c(C)c3)nc12 (stereo partly drawn) [Example 2, (S)-1-(2-{4-[5-(trans-2-fluorocyclohexyloxy)-7-propoxyoxazolo[5,4-d]pyrimidin-2-yl]-2,6-dimethylphenoxy}acetyl)pyrrolidine-2-carboxylic acid]	97
CCCOc1nc(Oc2cc(F)ccc2F)nc2oc(-c3cc(C)c(OCC(=O)N4CCC[C@H]4C(=O)O)c(C)c3)nc12 [Example 1, (S)-1-(2-{4-[5-(2,5-Difluorophenoxy)-7-propoxyoxazolo[5,4-d]pyrimidin-2-yl]-2,6-dimethylphenoxy}acetyl)pyrrolidine-2-carboxylic acid]	101
CCCOc1nc(Oc2ccccc2F)nc2oc(-c3cc(C)c(OCC(=O)N4CCC[C@H]4C(=O)O)c(C)c3)nc12 [Example 3, (S)-1-(2-{4-[5-(2-Fluorophenoxy)-7-propoxyoxazolo[5,4-d]pyrimidin-2-yl]-2,6-dimethylphenoxy}acetyl)pyrrolidine-2-carboxylic acid]	96
CCCOc1nc(Oc2ccc(F)cc2F)nc2oc(-c3cc(C)c(OCC(=O)N4CCC[C@H]4C(=O)O)c(C)c3)nc12 [Example 7, (S)-1-(2-{4-[5-(2,4-Difluorophenoxy)-7-propoxyoxazolo[5,4-d]pyrimidin-2-yl]-2,6-dimethylphenoxy}acetyl)pyrrolidine-2-carboxylic acid]	90
CCCOc1nc(Oc2cc(F)ccc2C)nc2oc(-c3cc(C)c(OCC(=O)N4CCC[C@H]4C(=O)O)c(C)c3)nc12 [Example 4, (S)-1-(2-{4-[5-(5-Fluoro-2-methylphenoxy)-7-propoxyoxazolo[5,4-d]pyrimidin-2-yl]-2,6-dimethylphenoxy}acetyl)pyrrolidine-2-carboxylic acid]	110

The next lines start with the values.

activation at 10 µM [%]	Compound
69	CCOc1nc(Oc2cccc(Cl)c2)nc2oc(-c3cc(C)c(OCC(=O)N4CCC[C@H]4C(=O)O)c(C)c3)nc12 [Example 10, (S)-1-(2-{4-[5-(3-Chlorophenoxy)-7-ethoxyoxazolo[5,4-d]pyrimidin-2-yl]-2,6-dimethylphenoxy}acetyl)pyrrolidine-2-carboxylic acid]
42	CCCOc1nc(N(C)CCC(F)(F)F)nc2oc(-c3cc(C)c(OCC(=O)N4CCC[C@H]4C(=O)O)c(C)c3)nc12 [Example 15, (S)-1-[2-(2,6-Dimethyl-4-{5-[methyl-(3,3,3-trifluoropropyl)amino]-7-propoxyoxazolo[5,4-d]pyrimidin-2-yl}phenoxy)acetyl]pyrrolidine-2-carboxylic acid]
99	CCOc1nc(Oc2cc(F)ccc2C)nc2oc(-c3cc(C)c(OCC(=O)N4CCC[C@H]4C(=O)O)c(C)c3)nc12 [Example 14, (S)-1-(2-{4-[7-Ethoxy-5-(5-fluoro-2-methylphenoxy)oxazolo[5,4-d]pyrimidin-2-yl]-2,6-dimethylphenoxy}acetyl)pyrrolidine-2-carboxylic acid]
128	CCCOc1nc(Oc2cccc(Cl)c2)nc2oc(-c3cc(C)c(OCC(=O)N4CCC[C@H]4C(=O)O)c(C)c3)nc12 [Example 9, (S)-1-(2-{4-[5-(3-Chlorophenoxy)-7-propoxyoxazolo[5,4-d]pyrimidin-2-yl]-2,6-dimethylphenoxy}acetyl)pyrrolidine-2-carboxylic acid]
85	CCCOc1nc(OCC2CCC2)nc2oc(-c3cc(C)c(OCC(=O)N4CCC[C@H]4C(=O)O)c(C)c3)nc12 [Example 16, (S)-1-{2-[4-(5-Cyclobutylmethoxy-7-propoxyoxazolo[5,4-d]pyrimidin-2-yl)-2,6-dimethylphenoxy]acetyl}pyrrolidine-2-carboxylic acid]
100	CCOc1nc(Oc2cccc(F)c2)nc2oc(-c3cc(C)c(OCC(=O)N4CCC[C@H]4C(=O)O)c(C)c3)nc12 [Example 11, (S)-1-(2-{4-[7-Ethoxy-5-(3-fluorophenoxy)oxazolo[5,4-d]pyrimidin-2-yl]-2,6-dimethylphenoxy}acetyl)pyrrolidine-2-carboxylic acid]
95	CCOc1nc(Oc2cc(F)ccc2F)nc2oc(-c3cc(C)c(OCC(=O)N4CCC[C@H]4C(=O)O)c(C)c3)nc12 [Example 13, (S)-1-(2-{4-[5-(2,5-Difluorophenoxy)-7-ethoxyoxazolo[5,4-d]pyrimidin-2-yl]-2,6-dimethylphenoxy}acetyl)pyrrolidine-2-carboxylic acid]
70	CCOc1nc(Oc2ccccc2F)nc2oc(-c3cc(C)c(OCC(=O)N4CCC[C@H]4C(=O)O)c(C)c3)nc12 [Example 12, (S)-1-(2-{4-[7-Ethoxy-5-(2-fluorophenoxy)oxazolo[5,4-d]pyrimidin-2-yl]-2,6-dimethylphenoxy}acetyl)pyrrolidine-2-carboxylic acid]
